Several values for one entry are separate records, joined by “and”; a condition that tells them apart may be missing. Equal values may be shown once.
Legend:
hBD-2 [1] = test: Induction of hBD-2 in KB epithelial cells, ELISA on cells related to MTT; assay type: cell-based, human; conditions: 48 hours, 100 ng/ml
Procedure: (§1) The cells KB (ATCC CCL-17), line of epithelial cells from a human oral carcinoma, commonly used in studies of the buccal cavity, were inoculated in plaques of 96 wells and cultivated in RPMI 1640 (Roswell Park Memorial Institute Medium) with Glutamax™1 at 10% VFS (veal fœtal serum)+antibiotics.
(§2) After 24 hours of incubation, the culture medium was eliminated and the cellular carpet was rinsed twice with PBS.
(§3) The cells were then treated under the conditions defined above during 24 and 48 hours: • Control cells: medium only • TNFα (commercialised by Sigma) at 100 ng/ml • hydrosoluble extract of sugars of avocado (40% mannoheptulose/40% perseitol) at 0.005-0.05 and 0.5 w/w (of dry matter) (batch A) 3. End of Treatment • Analysis of the antimicrobial peptides by ELISA on cells
After 48 hours of incubation under the different treatment conditions, the β-defensins 2 and 3 and the LL-present in the cells KB were analysed by an ELISA method on cells. […]
(§4) For each condition of treatment, the OD450 AMPs (antimicrobial peptides) was divided by the OD570 MTT to calculate the quantity of AMPs produced per living cell.
(§5) The averages and the standard deviations were calculated for each condition and the induction of different AMPS was calculated as the percentage increase with respect to the control cells.

LL-37 = test: Induction of LL-37 in KB epithelial cells, ELISA on cells related to MTT; assay type: cell-based, human; conditions: 48 hours, 100 ng/ml
Procedure: as §1, §2, §3
(§6) After 48 hours of incubation under the different treatment conditions, the β-defensins 2 and 3 and the LL-present in the cells KB were analysed by an ELISA method on cells.
(§7) In order to determine the total number of cells in each well, a test with MTT was run in parallel on the cells treated under the same conditions. • Utilisation of the results
as §4, §5

hBD-3 = test: Induction of hBD-3 in KB epithelial cells, ELISA on cells related to MTT; assay type: cell-based, human; conditions: 48 hours, 100 ng/ml
Procedure: as §1, §2, §3, §6, §7, §4, §5

hBD-2 [2] = test: Induction of hBD-2 in normal human keratinocytes, ELISA on cells related to MTT (Examples 3, 6, 7); assay type: cell-based; conditions: for production of hBD-2 (in words): Example 7, tested separately, commercial origin; for Modulation of the synthesis of HBD-2 (% increase with respect to control cells): proportions corresponding to 1% of a 5% solution of MS of batch A, i.e. 0.05% MS
Procedure: The keratinocytes of normal humans were inoculated in a 96 well plaque (about 20000 cells/well), in the presence of a specific medium enriched in calcium (final concentration 1.3 mM), as previously described in the publication “Human β-Defensin-2 production in Keratinocytes is regulated by Interleukin-1, Bacteria, and the State of Differentiation”, Alice Y. Liu et al., The Society for Investigative Dermatology, vol. 118, No. 2, February 2002, pages 275 to 281.
After an incubation of 24 hours at 37° C., 5% CO2: • 2 rinses with 200 μl/well of PBS (phosphate buffer in saline solution) • stimulation of the cells by 200 μl/well (in a Ca^++ supplemented medium): • by the hydrosoluble extract of sugars of avocado at concentrations of 0.5, 0.05 and 0.005 w/w of dry matter • by IL-1β at a concentration of 100 ng/ml (positive control of induction of hBD-2) III. End of Treatment (J2): ELISA
After 24 hours of incubation, the induction of the hBD-2 was evaluated by an ELISA method with a specific antibody (goat polyclonal to human BD2; Abcam; ab9871). The results obtained with the hydrosoluble extract of sugars of avocado, batch A, comprising 40% of D-mannoheptulose and 40% perseitol, based on the dry weight, are summarised in Table 8 below:
The same test as in example 3 was carried out with: • a mixture of fructose (5%), glucose (5%) and saccharose (3%); • D-mannoheptulose (40%); • perseitol (40%); • a mixture of fructose (5%), glucose (5%) saccharose (3%) and D-mannoheptulose (40%); • a mixture of fructose (5%), glucose (5%) saccharose (3%) and perseitol (40%); • a mixture of fructose (5%), glucose (5%) saccharose (3%) D-mannoheptulose (40%) and perseitol (40%); and • an extract of avocado sugars (batch A).
The same test as in example 3 was carried out with commercially available D-mannoheptulose and perseitol.

hBD-2 [3] = test: Expression of hBD-2 modulated by IL-4 in keratinocytes, in vitro modelling of atopic dermatitis; assay type: cell-based, human
Procedure: The keratinocytes of normal humans were inoculated as described in example 3.
After 24 hours of incubation at 37° C., 5% of CO2, the culture medium was eliminated and the cellular carpet was rinsed twice with PBS. The cells were then treated for 24 hours under the conditions defined below: • Control cells: medium only • IL-1β at 100 ng/ml (positive control for induction of hBD-2) • IL-4 at 50 ng/ml • Hydrosoluble extract of sugars of avocado (batch A) at 0.5% w/w of dry matter • IL-1β at 100 ng/ml and IL-4 at 50 ng/ml • IL-4 at 50 ng/ml and hydrosoluble extract of sugars of avocado (batch A) at 0.05% w/w of dry matter • IL-1β at 100 ng/ml and IL-4 at 50 ng/ml and hydrosoluble extract of sugars of avocado (batch A) at 0.05% w/w of dry matter
At the end of the treatment, the induction of hBD-2 was evaluated by an ELISA method on cells; in parallel, in order to determine the total number of cells in each well, a test with MTT was run in parallel on the cells treated under the same conditions. Thus, for each condition, the OD450 hBD-2 was divided by the OD570 MTT to obtain the quantity of hBD-2 produced per living cell.

[4] = tested on: tumorous cells of Ehrlich ascites sarcoma; conditions: perseitol associated with a potassium ion; cited from earlier work
[5] = Example 7, commercial origin, 0.0012%
[6] = Example 7, commercial origin, 0.012%

TNFα
Induction of HBD-2 % increase (hBD-2 [1]): 239%
OD hBD2/OD MTT average (hBD-2 [1]): 0.037
Induction of LL-37 % increase (LL-37): 88%
OD LL-37/OD MTT (wells) (LL-37): 0.080 and 0.072 and 0.077 and 0.091 and 0.082 and 0.076
OD LL-37/OD MTT average (LL-37): 0.080
Induction of HBD-3 % increase (hBD-3): 30%
OD hBD3/OD MTT (wells) (hBD-3): 0.431 and 0.448 and 0.399 and 0.407 and 0.374
OD hBD3/OD MTT average (hBD-3): 0.410

O=C(CO)[C@@H](O)[C@@H](O)[C@H](O)[C@H](O)CO [D-mannoheptulose]
effect on the synthesis of HBD-2 (in words) (hBD-2 [2]; Example 6, sugars in the proportions of batch A): more active than the perseitol
Average (hBD-2, same test as in example 3) (hBD-2 [2]; [5]): 0.089
Average (hBD-2, same test as in example 3) (hBD-2 [2]; [6]): 0.089
production of hBD-2 (in words) (hBD-2 [2]): capable of inducing the production of hBD-2
Modulation of the synthesis of HBD-2 (% increase with respect to control cells) (hBD-2 [2]): 31%

IL-1β: positive control of induction of hBD-2, 100 ng/ml
Average (hBD-2, same test as in example 3) (hBD-2 [2]; Example 7, positive control): 0.104
% increase vs. control (hBD-2 [2]; keratinocytes, 24 h, 100 ng/ml): 128%
hBD-2/MTT (single values) (hBD-2 [2]; keratinocytes, 24 h, 100 ng/ml): 0.223 OD and 0.324 OD and 0.273 OD and 0.322 OD
hBD-2/MTT (single values) (hBD-2 [3]; 24 hours, IL-1β 100 ng/ml): 0.291 OD and 0.308 OD and 0.347 OD
increase in the synthesis of hBD-2 with respect to the control cells (hBD-2 [3]; IL-1β 100 ng/ml): 80%

IL-4: interleukine-4, mediator of atopy, 50 ng/ml
hBD-2/MTT (single values) (hBD-2 [3]; 24 hours, IL-4 50 ng/ml): 0.160 OD and 0.158 OD and 0.163 OD
hBD-2/MTT Average (hBD-2 [3]; 24 hours, IL-4 50 ng/ml): 0.160 +/− 0.002 OD
inhibition of the synthesis of hBD-2 induced by IL-1β (hBD-2 [3]; IL-4 50 ng/ml with IL-1β 100 ng/ml): 32%
influence on the quantity of hBD-2 expressed by the keratinocytes (in words) (hBD-2 [3]; IL-4 alone, 50 ng/ml): no influence

OCC(O)C(O)C(O)C(O)C(O)CO (stereo not drawn) [Perseitol]
Average (hBD-2, same test as in example 3) (hBD-2 [2]; [5]): 0.063
Average (hBD-2, same test as in example 3) (hBD-2 [2]; [6]): 0.090
production of hBD-2 (in words) (hBD-2 [2]): capable of inducing the production of hBD-2
Modulation of the synthesis of HBD-2 (% increase with respect to control cells) (hBD-2 [2]): 12%
incorporation of leucine-3H into tumorous cells (in words) [4]: enables leucine-3H to be incorporated

From patent publication US9023810B2, “Use of a compound comprising D-mannoheptulose and/or perseitol for treating and preventing innate immunity modification diseases” (Laboratories Expanscience, priority 2004, dated 2015)
